According to publication PMC7822874, “Chemoprotective antimalarials identified through quantitative high-throughput screening of Plasmodium blood and liver stage parasites” (Scientific Reports, 2021):

Tests used:
Assay type in all cases: cell-based, Plasmodium falciparum
[1] = system: P. falciparum Dd2 (clone B2) asexual blood stage parasites; experiment: P. falciparum Dd2 asexual blood stage SYBR Green-I 72 h proliferation assay (qHTS); settings: Plasmodium falciparum, DD2, Dd2 parental; Hill fit, averaged from three independent replicates; top concentration 29 µM; read-out: Average AC50 (Log[M]), Dd2 (converted)
[2] = system: P. falciparum Dd2 Cytb G131S; experiment: SYBR Green ABS proliferation assay, NCGC00374598 selected clone C11; settings: Plasmodium falciparum, DD2, […]; averaged from three independent replicates; top concentration 29 µM; read-out: Average AC50 (Log[M]), NCGC00374598 clone C11 (Cytb G131S) (converted)
Summary of the method: (§1)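 Drug-selected Dd2 clones bearing the cytochrome b mutation were cultured at 37 °C under 5% CO2, 5% O2, 90% N2. Growth was read at 72 h by SYBR Green-I fluorescence, normalized to controls as percent response.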

[3] = system: P. falciparum Dd2 Cytb V259L; experiment: SYBR Green ABS proliferation assay, NCGC00473217 selected clone F06; settings: Plasmodium falciparum, DD2, […]; averaged from three independent replicates; top concentration 29 µM; read-out: Average AC50 (Log[M]), NCGC00473217 clone F06 (Cytb V259L) (converted)
Summary of the method: as §1

[4] = system: P. falciparum Dd2 Cytb A122D; experiment: SYBR Green ABS proliferation assay, NCGC00473217 selected clone F12; settings: Plasmodium falciparum, DD2, […]; averaged from three independent replicates; top concentration 29 µM; read-out: Average AC50 (Log[M]), NCGC00473217 clone F12 (Cytb A122D) (converted)
Summary of the method: as §1

[5] = system: P. falciparum Dd2 Cytb F123L; experiment: SYBR Green ABS proliferation assay, NCGC00473217 selected clone G08; settings: Plasmodium falciparum, DD2, […]; averaged from three independent replicates; top concentration 29 µM; read-out: Average AC50 (Log[M]), NCGC00473217 clone G08 (Cytb F123L) (converted)
Summary of the method: as §1

| Structure (SMILES) | AC50 [1] [M] | AC50 [2] [M] | AC50 [3] [M] | AC50 [4] [M] | AC50 [5] [M] |
| --- | --- | --- | --- | --- | --- |
| CCCN1C(CC(C)C)=N[S+](=O)([O-])c2cc(NC(=O)c3c(Cl)cnn3C)ccc21 [NCGC00521056-01] | 1.65e-05 | 1.12e-05 | 8.61e-06 | 6.32e-06 | 1.22e-05 |
| CCCN1C(CC(C)C)=N[S+](=O)([O-])c2cc(NC(=O)COc3ccccc3)ccc21 [NCGC00521094-01] | 7.67e-06 | 8.28e-06 | 6.84e-06 | 1.36e-05 | 6.1e-06 |
| CCCN1C(CC(C)C)=N[S+](=O)([O-])c2cc(NC(=O)C3CCC3)ccc21 [NCGC00521095-01] | 3.17e-06 | 3.36e-07 | 2.99e-06 | 1e-05 | 6.7e-06 |
| CCCN1C(CC(C)C)=N[S+](=O)([O-])c2cc(NC(=O)c3cn(-c4ccccc4)cn3)ccc21 [NCGC00521102-01] | 7.67e-06 | 2.62e-07 | 2.99e-06 | 3.56e-08 | 3.56e-06 |
| CCCN1C(CC(C)C)=N[S+](=O)([O-])c2cc(NC(=O)C3CCCCC3)ccc21 [NCGC00521107-01] | 6.32e-06 | 6.32e-06 | 5.02e-06 | 1.04e-05 | 8.93e-06 |
| CCCN1C(CC(C)C)=N[S+](=O)([O-])c2cc(NC(=O)C3CCN(C)CC3)ccc21 [NCGC00521111-01] | 2.08e-05 | 1.17e-06 | 1.53e-05 | 3.77e-07 | 1.22e-05 |
| CCCN1C(CC(C)C)=N[S+](=O)([O-])c2cc(NC(=O)c3ccc(-c4ccccc4)s3)ccc21 [NCGC00521113-01] | 5.02e-06 | 1.68e-06 | 1.42e-06 | 5.02e-06 | 2.24e-06 |
| CCCN1C(CC(C)C)=N[S+](=O)([O-])c2cc(NC(=O)c3cc4cccnc4s3)ccc21 [NCGC00521132-01] | 6.7e-06 | 2.82e-06 | 2.99e-06 | 2.99e-06 | 8.93e-06 |
| CCCN1C(CC(C)C)=N[S+](=O)([O-])c2cc(NC(=O)c3ccccn3)ccc21 [NCGC00521133-01] | 9.29e-06 | 1.04e-06 | 7.67e-06 | 1.89e-06 | 1.04e-05 |
| CCCN1C(CC(C)C)=N[S+](=O)([O-])c2cc(NC(=O)c3cncnc3)ccc21 [NCGC00521134-01] | 8.93e-06 | 4.48e-06 | 1.59e-06 | 3.77e-06 | 4.48e-06 |
| CCCN1C(CC(C)C)=N[S+](=O)([O-])c2cc(NC(=O)c3cnn4cccnc34)ccc21 [NCGC00521136-01] | 1.22e-05 | 7.96e-06 | 8.28e-06 | 6.84e-06 | 1.17e-05 |
| CCCN1C(CC(C)C)=N[S+](=O)([O-])c2cc(NC(=O)c3cc4ncccn4n3)ccc21 [NCGC00521137-01] | 1e-05 | 5.97e-06 | 7.38e-06 | 9.29e-06 | 1.04e-05 |
| CCCN1C(CC(C)C)=N[S+](=O)([O-])c2cc(N[S+](=O)([O-])c3ccc4ccccc4c3)ccc21 [NCGC00521141-01] | 1.26e-05 | 7.1e-06 | 5.32e-06 | 1.12e-05 | 7.1e-07 |
| CCCN1C(CC(C)C)=N[S+](=O)([O-])c2cc(NC(=O)c3coc4ccccc34)ccc21 [NCGC00521147-01] | 7.38e-06 | 8.43e-06 | 2.24e-06 | 5.64e-06 | 8.93e-06 |
| CCCN1C(CC(C)C)=N[S+](=O)([O-])c2cc(NC(=O)c3ncccn3)ccc21 [NCGC00521149-01] | 1.12e-05 | 1.59e-05 | 1.19e-05 | 1.04e-05 | 1.42e-05 |
| CCCN1C(CC(C)C)=N[S+](=O)([O-])c2cc(NC(=O)c3cc4c(s3)CCC4)ccc21 [NCGC00521150-01] | 1.59e-05 | 1.04e-05 | 1.12e-05 | 1.59e-05 | 1.12e-05 |
| CCCN1C(CC(C)C)=N[S+](=O)([O-])c2cc(NC(=O)C3CCCC3)ccc21 [NCGC00521158-01] | 2.72e-06 | 4.15e-06 | 2.16e-06 | 5.22e-06 | 1.17e-05 |

| Structure (SMILES) | AC50 [1] [M] | AC50 [2] [M] | AC50 [3] [M] | AC50 [4] [M] | AC50 [5] [M] |
| --- | --- | --- | --- | --- | --- |
| CCCN1C(CC(C)C)=N[S+](=O)([O-])c2cc(NC(=O)c3ccc4ccccc4n3)ccc21 [NCGC00521161-01] | 5.97e-06 | 7.96e-07 | 2.24e-06 | 3.99e-06 | 2.82e-06 |
| CCCN1C(CC(C)C)=N[S+](=O)([O-])c2cc(NC(=O)c3cc4ccncc4[nH]3)ccc21 [NCGC00521877-01] | 2.24e-06 | 1.42e-06 | 7.67e-07 | 7.67e-07 | 9.29e-07 |
| CCCN1C(CC(C)C)=N[S+](=O)([O-])c2cc(NC(=O)Nc3ccccc3)ccc21 [NCGC00521878-01] | 3.56e-06 | 7.96e-06 | 1.04e-05 | 8.28e-06 | 1.59e-05 |
| CCCN1C(CC(C)C)=N[S+](=O)([O-])c2cc(NC(=O)c3cc4ccccc4s3)ccc21 [NCGC00521881-01] | 1.65e-05 | 1.42e-05 | 6.84e-06 | 4.48e-06 | 7.1e-06 |
| CCCN1C(CC(C)C)=N[S+](=O)([O-])c2cc(NC(=O)C34CC5CC(CC(C5)C3)C4)ccc21 [NCGC00521891-01] | 3.56e-06 | 2.82e-07 | 1.12e-06 | 1.89e-06 | 1e-06 |
| CCCN1C(CC(C)C)=N[S+](=O)([O-])c2cc(NC(=O)c3ccc(Cl)s3)ccc21 [NCGC00523535-01] | 1.53e-06 | 1e-06 | 7.1e-06 | 5.86e-06 | 9.66e-06 |
| CCCN1C(CC(C)C)=N[S+](=O)([O-])c2cc(NC(=O)c3ccc(F)s3)ccc21 [NCGC00523537-01] | 1.12e-07 | 3.17e-07 | 8.93e-07 | 7.96e-07 | 3.85e-06 |
| CCCN1C(CC(C)C)=N[S+](=O)([O-])c2cc(NC(=O)c3cccc(F)c3)ccc21 [NCGC00523538-01] | 3.85e-06 | 2.08e-06 | 1e-06 | 2.72e-06 | 1.12e-05 |
| CCCN1C(CC(C)C)=N[S+](=O)([O-])c2cc(NC(=O)c3ccccc3F)ccc21 [NCGC00523540-01] | 4.66e-06 | 4.48e-06 | 2.16e-06 | 2.82e-06 | 2.72e-06 |
| CCCN1C(CC(C)C)=N[S+](=O)([O-])c2cc(NC(=O)c3sccc3F)ccc21 [NCGC00523542-01] | 1.59e-06 | 1.78e-06 | 5.43e-06 | 1.31e-06 | 7.52e-06 |
| CCCN1C(CC(C)C)=N[S+](=O)([O-])c2cc(NC(=O)c3ccc(F)cc3F)ccc21 [NCGC00523543-01] | 3.99e-06 | 2e-06 | 3.36e-06 | 1.93e-06 | 3.56e-07 |
| CCCN1C(CC(C)C)=N[S+](=O)([O-])c2cc(NC(=O)c3cc(F)cc(F)c3)ccc21 [NCGC00523544-01] | 5.43e-06 | 5.02e-06 | 7.1e-06 | 9.66e-06 | 1.08e-05 |
| CCCN1C(CC(C)C)=N[S+](=O)([O-])c2cc(NC(=O)c3sccc3Cl)ccc21 [NCGC00531529-01] | 2.24e-06 | 5.86e-07 | 3.7e-06 | 6.1e-07 | 2.24e-06 |
| CCCN1C(CC(C)C)=N[S+](=O)([O-])c2cc(NC(=O)c3ccccc3OC(F)(F)F)ccc21 [NCGC00531535-01] | 1.59e-05 | 8.93e-06 | 9.29e-06 | 1.08e-05 | 1.04e-05 |
| CCCN1C(CC(C)C)=N[S+](=O)([O-])c2cc(NC(=O)c3c(F)cccc3F)ccc21 [NCGC00531536-01] | 1.59e-05 | 1.22e-05 | 1.22e-05 | 1e-05 | 5.64e-06 |
| CCCN1C(CC(C)C)=N[S+](=O)([O-])c2cc(NC(=O)c3cccc(OC(F)(F)F)c3)ccc21 [NCGC00531537-01] | 1.12e-05 | 1.12e-05 | 3.99e-06 | 1e-05 | 7.96e-06 |
| CCCN1C(CC(C)C)=N[S+](=O)([O-])c2cc(NC(=O)c3ccc(Cl)c(Cl)c3)ccc21 [NCGC00531756-01] | 2e-05 | 5.97e-06 | 7.38e-06 | 8.93e-06 | 1.42e-05 |
